Measurements taken from ChEMBL document CHEMBL3098072 (Bioorg Med Chem, 2014).
Values after ≈ are worked out from the molar mass of the structure shown. Active and inactive are the calls of the source. The rule behind the calls is not given here.

Experiments:
[1] = target: T1, Inorganic pyrophosphatase (Mycobacterium tuberculosis (strain ATCC 25618 / H37Rv)) (UniProt P9WI55); test: Inhibition of Mycobacterium tuberculosis PPase at 100 uM using inorganic pyrophosphate as substrate preincubated for 2 mins followed by substrate addition measured after 6 mins by malachite green assay
T1 sequence (whole entry): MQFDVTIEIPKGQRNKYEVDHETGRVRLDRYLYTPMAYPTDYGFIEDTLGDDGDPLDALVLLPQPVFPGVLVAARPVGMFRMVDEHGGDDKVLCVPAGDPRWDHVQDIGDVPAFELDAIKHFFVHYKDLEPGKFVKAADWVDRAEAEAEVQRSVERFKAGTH

[2] = system: Mycobacterium tuberculosis; test: microbe, parasite or virus in culture; settings: H37Rv, 96 h
[3] = target: T2, Inorganic pyrophosphatase (Mycobacterium tuberculosis (strain ATCC 25618 / H37Rv), UniProt P9WI55); test: Inhibition of Mycobacterium tuberculosis PPase using inorganic pyrophosphate as substrate preincubated for 2 mins followed by substrate addition measured after 6 mins by malachite green assay
T2 sequence (P9WI55 whole entry): T1 sequence (whole entry)

[4] = Solubility of the compound in DMSO; format: physicochemical
[5] = system: Bacillus subtilis; test: microbe, parasite or virus in culture; settings: 20 h
[6] = system: Bacillus anthracis; test: microbe, parasite or virus in culture; settings: Sterne 34F2, 20 h
[7] = system: HeLa; test: Cytotoxicity against human HeLa cells at 64 uM after 2 hrs by MTS assay relative to control; format: cell-based
[8] = Cytotoxicity against mouse J774A1 cells at 64 uM after 2 hrs by MTS assay relative to control; format: cell-based; settings: j774.a1, 2 h
[9] = system: Staphylococcus aureus; test: microbe, parasite or virus in culture; settings: 20 h

Row | SMILES | inhibition [1] | MIC [2] | further results
1 | Cc1ccc(-c2cnnc(N3CCC(c4cccc(C#N)c4)C3)n2)o1 (stereo not drawn) | 10.3% | 64.4 µM (≈ 21.3 µg/mL) | 
2 | FC(F)(F)c1ccccc1-c1ccc(-c2cnnc(N3CCC(c4cccc(Cl)c4)C3)n2)o1 (stereo not drawn) | 67.7% | > 128 µM | IC50 [3]: 38.3 µM
3 | COC(=O)c1cccc(-c2ccc(-c3cnnc(N4CCC(c5cccc(Cl)c5)C4)n3)o2)c1 (stereo not drawn) |  | > 16 µM | solubility [4]: < 100 µM
4 | Cc1ccc(-c2cnnc(N3CCC(c4ccc(O)c(O)c4)C3)n2)o1 (stereo not drawn) | inactive | > 128 µM | 
5 | Cc1ccc(-c2cnnc(N3CCC(c4cccc(C(F)(F)F)c4)C3)n2)o1 (stereo not drawn) | 37.8% | 52.4 µM (≈ 19.6 µg/mL) | IC50 [3]: 355 µM
6 | COc1ccc(C2CCN(c3nncc(-c4ccc(C)o4)n3)C2)cc1O (stereo not drawn) | 5% | > 128 µM | 
7 | CN[C@H](CC(C)C)C(=O)N[C@H]1C(=O)N[C@@H](CC(N)=O)C(=O)N[C@H]2C(=O)N[C@H]3C(=O)N[C@H](C(=O)N[C@H](C(=O)O)c4cc(O)cc(O)c4-c4cc3ccc4O)[C@H](O)c3ccc(c(Cl)c3)Oc3cc2cc(c3O[C@@H]2O[C@H](CO)[C@@H](O)[C@H](O)[C@H]2O[C@H]2C[C@](C)(N)[C@H](O)[C@H](C)O2)Oc2ccc(cc2Cl)[C@H]1O [VANCOMYCIN] |  |  | MBC [5]: < 1 µM; MIC [5]: < 1 µM; MBC [6]: < 1 µM; MIC [6]: < 1 µM
8 | Cc1ccc(-c2cnnc(N3CCC(c4cccc([N+](=O)[O-])c4)C3)n2)o1 (stereo not drawn) |  | > 16 µM | solubility [4]: < 100 µM
9 | NNC(=O)c1ccncc1 [ISONIAZID] |  | 0.45 µM (≈ 0.0617 µg/mL) | 
10 | Cc1ccc(-c2cnnc(N3CCC(c4cccc(O)c4)C3)n2)o1 (stereo not drawn) | inactive | 60.3 µM (≈ 19.4 µg/mL) | Activity [7]: Non-toxic; Activity [8]: Non-toxic; MIC [5]: 128 µM (≈ 41.3 µg/mL); MBC [6]: 128 µM (≈ 41.3 µg/mL); MIC [6]: 64 µM (≈ 20.6 µg/mL); MIC [9]: > 50 µM
11 | O=[N+]([O-])c1cccc(-c2ccc(-c3cnnc(N4CCC(c5cccc(Cl)c5)C4)n3)o2)c1 (stereo not drawn) |  | > 16 µM | solubility [4]: < 100 µM
12 | Nc1cccc(-c2cnnc(N3CCC(c4cccc(Cl)c4)C3)n2)c1 (stereo not drawn) |  |  | Activity [7]: Non-toxic; Activity [8]: Non-toxic
13 | Cc1ccc(-c2cnnc(N3CCC(c4cccc(OCc5ccccc5)c4)C3)n2)o1 (stereo not drawn) | 73.2% |  | IC50 [3]: 63.2 µM
14 | O=[N+]([O-])c1ccc(-c2cnnc(N3CCC(c4cccc(Cl)c4)C3)n2)cc1 (stereo not drawn) | 30.3% | 31.2 µM (≈ 11.9 µg/mL) | 
15 | Clc1cccc(C2CCN(c3nncc(-c4ccccc4)n3)C2)c1 (stereo not drawn) |  |  | Activity [7]: Non-toxic; Activity [8]: Non-toxic
16 | Nc1ccc(-c2cnnc(N3CCC(c4cccc(Cl)c4)C3)n2)cc1 (stereo not drawn) |  | 5.7 µM (≈ 2.01 µg/mL) | Activity [7]: Non-toxic; Activity [8]: Non-toxic; MBC [6]: 128 µM (≈ 45 µg/mL); MIC [6]: 16 µM (≈ 5.63 µg/mL)
17 | O=[N+]([O-])c1cccc(-c2ccc(-c3cnnc(N4CCC(c5cccc(Cl)c5)C4)n3)cc2)c1 (stereo not drawn) | inactive | > 128 µM | 
18 | Cc1ccc(-c2cnnc(N3CCC(c4ccccc4)C3)n2)o1 (stereo not drawn) | 19.7% | 40.5 µM (≈ 12.4 µg/mL) | 
19 | Cc1ccc(-c2cnnc(N3CCC(c4cccc(N)c4)C3)n2)o1 (stereo not drawn) | 33.4% | 70.1 µM (≈ 22.5 µg/mL) | 
20 | O=[N+]([O-])c1cccc(-c2cnnc(N3CCC(c4cccc(Cl)c4)C3)n2)c1 (stereo not drawn) | 39.4% | > 128 µM | IC50 [3]: 118 µM
21 | Cc1ccc(-c2cnnc(N3CCC(c4cccc(F)c4)C3)n2)o1 (stereo not drawn) | 21.3% | 38.9 µM (≈ 12.6 µg/mL) | 
22 | CO[C@H]1/C=C/O[C@@]2(C)Oc3c(C)c(O)c4c(O)c(c(/C=N/N5CCN(C)CC5)c(O)c4c3C2=O)NC(=O)/C(C)=C\C=C\[C@H](C)[C@H](O)[C@@H](C)[C@@H](O)[C@@H](C)[C@H](OC(C)=O)[C@@H]1C [RIFAMPIN] |  | 0.08 µM (≈ 0.0658 µg/mL) | 
23 | Clc1cccc(C2CCN(c3nncc(-c4ccc5c(c4)OCO5)n3)C2)c1 (stereo not drawn) |  | > 16 µM | solubility [4]: < 100 µM
24 | Cc1ccc(-c2cnnc(N3CCC(n4cnc5c(N)ncnc54)C3)n2)o1 (stereo not drawn) | inactive | > 128 µM | 
25 | Clc1cccc(C2CCN(c3nncc(-c4ccc(Br)cc4)n3)C2)c1 (stereo not drawn) | 53% | 30.7 µM (≈ 12.8 µg/mL) | IC50 [3]: 33.3 µM
26 | Cc1ccc(-c2cnnc(N3CCC(c4cccc(Cl)c4)C3)n2)o1 (stereo not drawn) | 45.6% | 61 µM (≈ 20.8 µg/mL) | IC50 [3]: 148 µM
27 | COc1ccc(-c2cnnc(N3CCC(c4cccc(Cl)c4)C3)n2)cc1OC (stereo not drawn) |  |  | Activity [7]: Non-toxic; Activity [8]: Non-toxic
